Patent US20230265151A1, “GIP/GLP1 CO-AGONIST COMPOUNDS” (priority 2020, published 2023)
Read-outs that look alike come from different tables or passages of the source.

Assays:
[1] = target: T1, human GLP-1 receptor (hGLP-1R) (Homo sapiens, UniProt P43220); test: [125I]-GLP-1 binding, SPA with membranes of HEK293 cells expressing hGLP-1R
T1 construct: expressed in transfected cells; crude membranes

[2] = target: hGLP-1R (Homo sapiens, UniProt P43220); test: Functional cAMP formation (HTRF) in HEK-293 clonal cells expressing hGLP-1R, 0.1% bovine casein, without or with 1.0% human serum albumin; type: cell-based; parameters: expressed in transfected cells; settings: for Emax: 0.1% bovine casein, arithmetic mean; for EC50: geometric mean
Summary of the method: (§1)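 Readings of the HTRF 665/620 nm ratio, which falls as cAMP rises, were converted to nM cAMP using a standard curve after 30 min peptide exposure at 37° C.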

[3] = target: T2, human Gcg receptor (hGcgR) (Homo sapiens, UniProt P47871); test: [125I]-Glucagon binding, SPA with membranes of HEK293 cells expressing hGcgR
T2 construct: expressed in transfected cells; crude membranes

[4] = target: T3, hGCGR (Homo sapiens, UniProt P47871); test: Functional cAMP formation (HTRF) in HEK-293 clonal cells expressing hGCGR, 0.1% bovine casein, without or with 1.0% human serum albumin; type: cell-based; settings: geometric mean
T3 construct: expressed in transfected cells
Summary of the method: as §1

[5] = target: T4, hGIPR (Homo sapiens, UniProt P48546); test: Functional cAMP formation (HTRF) in HEK-293 clonal cells expressing hGIPR, 0.1% bovine casein, without or with 1.0% human serum albumin; type: cell-based; settings: for EC50: geometric mean
T4 construct: expressed in transfected cells
T4 sequence (P48546 22-466): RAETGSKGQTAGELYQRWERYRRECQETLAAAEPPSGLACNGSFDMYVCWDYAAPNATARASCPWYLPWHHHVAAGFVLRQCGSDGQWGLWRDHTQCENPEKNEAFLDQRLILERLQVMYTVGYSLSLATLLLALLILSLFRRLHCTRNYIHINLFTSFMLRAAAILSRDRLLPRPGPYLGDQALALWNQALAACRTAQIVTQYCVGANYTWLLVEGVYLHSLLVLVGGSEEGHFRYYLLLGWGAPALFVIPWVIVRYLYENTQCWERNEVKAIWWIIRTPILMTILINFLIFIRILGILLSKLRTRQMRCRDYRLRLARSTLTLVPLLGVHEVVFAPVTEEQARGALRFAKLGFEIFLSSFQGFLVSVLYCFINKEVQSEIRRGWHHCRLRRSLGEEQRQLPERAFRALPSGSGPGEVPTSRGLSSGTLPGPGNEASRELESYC
Summary of the method: as §1

T3 sequence (P47871 26-477): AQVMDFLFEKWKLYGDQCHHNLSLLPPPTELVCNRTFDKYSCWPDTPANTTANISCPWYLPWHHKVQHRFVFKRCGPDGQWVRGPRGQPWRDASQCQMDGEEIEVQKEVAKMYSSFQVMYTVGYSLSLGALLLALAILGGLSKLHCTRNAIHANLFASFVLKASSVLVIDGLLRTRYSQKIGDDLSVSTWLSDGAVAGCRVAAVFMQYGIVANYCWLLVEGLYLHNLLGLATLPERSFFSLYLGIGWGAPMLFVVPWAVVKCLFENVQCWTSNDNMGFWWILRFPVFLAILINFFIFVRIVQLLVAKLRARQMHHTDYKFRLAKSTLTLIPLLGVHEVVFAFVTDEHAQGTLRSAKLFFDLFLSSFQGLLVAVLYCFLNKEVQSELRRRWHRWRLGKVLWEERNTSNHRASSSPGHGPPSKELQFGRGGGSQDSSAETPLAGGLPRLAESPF
hGLP-1R, sequence (P43220 24-463): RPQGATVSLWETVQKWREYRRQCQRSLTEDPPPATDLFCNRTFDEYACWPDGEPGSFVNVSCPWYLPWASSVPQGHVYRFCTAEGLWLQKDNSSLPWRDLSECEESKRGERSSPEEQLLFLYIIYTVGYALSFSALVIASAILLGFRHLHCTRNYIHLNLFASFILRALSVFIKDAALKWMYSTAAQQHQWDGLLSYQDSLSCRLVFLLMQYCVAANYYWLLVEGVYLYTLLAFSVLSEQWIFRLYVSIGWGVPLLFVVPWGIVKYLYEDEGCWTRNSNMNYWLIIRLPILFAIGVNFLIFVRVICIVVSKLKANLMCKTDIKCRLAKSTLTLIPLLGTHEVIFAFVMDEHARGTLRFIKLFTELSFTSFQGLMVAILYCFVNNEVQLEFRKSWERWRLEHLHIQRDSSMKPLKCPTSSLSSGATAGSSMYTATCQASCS
T2 sequence (P47871 26-477): as the sequence (P47871 26-477) above

SMILES: CCCCCCCCCCCC(=O)N[C@@H](CCC(=O)NCCOCCOCC(=O)NCCOCCOCC(=O)NCCCC[C@H](NC(=O)[C@H](CCCN)NC(=O)[C@H](CC(=O)O)NC(=O)[C@H](CC(C)C)NC(=O)[C@](C)(CC(C)C)NC(=O)[C@@H](NC(=O)[C@H](CO)NC(=O)[C@H](Cc1ccncc1)NC(=O)[C@H](CC(=O)O)NC(=O)[C@H](CO)NC(=O)[C@@H](NC(=O)[C@](C)(Cc1ccccc1F)NC(=O)[C@@H](NC(=O)CNC(=O)[C@H](CCC(=O)O)NC(=O)C(C)(C)NC(=O)[C@@H](N)Cc1ccc(O)cc1)[C@@H](C)O)[C@@H](C)O)[C@@H](C)CC)C(=O)N[C@@H](C)C(=O)N[C@@H](CCC(N)=O)C(=O)NC(C)(C)C(=O)N[C@@H](CCC(=O)O)C(=O)N[C@@H](Cc1ccccc1)C(=O)N[C@H](C(=O)N[C@H](CCC(=O)O)C(=O)N[C@@](C)(Cc1ccc(O)cc1)C(=O)N[C@@H](CC(C)C)C(=O)N[C@H](C(=O)N[C@@H](CCCCNC(=O)COCCOCCNC(=O)COCCOCCNC(=O)CC[C@H](NC(=O)CCCCCCCCCCC)C(=O)O)C(=O)NCC(=O)NCC(=O)N1CCC[C@H]1C(=O)N[C@@H](CO)C(=O)N[C@@H](CO)C(=O)NCC(=O)N[C@@H](C)C(=O)N1CCC[C@H]1C(=O)N1CCC[C@H]1C(=O)N1CCC[C@H]1C(=O)N[C@@H](CO)C(N)=O)[C@@H](C)CC)[C@@H](C)CC)C(=O)O [Example 139]
- Ki ([1]; human GLP-1R, geometric mean (SEM, n), read-out: Binding Affinity Ki, nM (SEM, n) hGLP-1R): 0.268 nM
- Emax ([2]; HEK293, percent of maximal response to GLP-1(7-36)NH2, 37° C., read-out: hGLP-1R Emax, % ± SEM): 111%
- EC50 ([2]; cAMP, incubated at 37° C., 0.1% bovine casein (no human serum albumin), read-out: hGLP-1R EC50, nM (SEM, n)): 0.141 nM
- Ki ([3]; human GcgR, geometric mean (SEM, n), read-out: Binding Affinity Ki, nM (SEM, n) hGCGR): 109 nM
- EC50 ([4]; cAMP, incubated at 37° C., 0.1% bovine casein (no human serum albumin), read-out: hGCGR EC50, nM (SEM, n)): > 9950 nM
- EC50 ([5]; cAMP, incubated at 37° C., 0.1% bovine casein (no human serum albumin), read-out: hGIPR EC50, nM (SEM, n)): 0.0108 nM

SMILES: CC[C@H](C)[C@H](NC(=O)[C@H](CC(C)C)NC(=O)[C@](C)(Cc1ccc(O)cc1)NC(=O)[C@@H](CCC(=O)O)NC(=O)[C@@H](NC(=O)[C@H](Cc1ccccc1)NC(=O)[C@H](CCC(=O)O)NC(=O)C(C)(C)NC(=O)[C@H](CCC(N)=O)NC(=O)[C@H](C)NC(=O)[C@H](CCCCNC(=O)COCCOCCNC(=O)COCCOCCNC(=O)CC[C@H](NC(=O)CCCCCCCCCOc1ccc(C(=O)O)cc1)C(=O)O)NC(=O)[C@H](CCCN)NC(=O)[C@H](CC(=O)O)NC(=O)[C@H](CC(C)C)NC(=O)[C@](C)(CC(C)C)NC(=O)[C@@H](NC(=O)[C@H](CO)NC(=O)[C@H](Cc1ccncc1)NC(=O)[C@H](CC(=O)O)NC(=O)[C@H](CO)NC(=O)[C@@H](NC(=O)[C@](C)(Cc1ccccc1F)NC(=O)[C@@H](NC(=O)CNC(=O)[C@H](CCC(=O)O)NC(=O)C(C)(C)NC(=O)[C@@H](N)Cc1ccc(O)cc1)[C@@H](C)O)[C@@H](C)O)[C@@H](C)CC)[C@@H](C)CC)C(=O)N[C@@H](CCC(=O)O)C(=O)NCC(=O)NCC(=O)N[C@@H](CCCCNC(=O)COCCOCCNC(=O)COCCOCCNC(=O)CC[C@H](NC(=O)CCCCCCCCCOc1ccc(C(=O)O)cc1)C(=O)O)C(=O)N[C@@H](CO)C(=O)N[C@@H](CO)C(=O)NCC(=O)N[C@@H](C)C(=O)N1CCC[C@H]1C(=O)N1CCC[C@H]1C(=O)N1CCC[C@H]1C(=O)N[C@@H](CO)C(N)=O [Example 2]
- Ki [1]: 1.04 nM
- Emax ([2]; HEK293, read-out: hGLP-1R Emax, % ± SEM, percent of maximal response to GLP-1(7-36)NH2, 37° C.): 93.1 ± 5.83%
- EC50 ([2]; hGLP-1R EC50, nM (SEM, n), 0.1% bovine casein and 1.0% human serum albumin, 37° C.): 32.1 nM
- EC50 ([2]; hGLP-1R EC50, nM (SEM, n), cAMP, incubated at 37° C., 0.1% bovine casein (no human serum albumin)): 1.14 nM
- Ki [3]: > 958 nM
- EC50 ([4]; hGCGR EC50, nM (SEM, n), 0.1% bovine casein and 1.0% human serum albumin, 37° C.): > 9950 nM
- EC50 ([4]; hGCGR EC50, nM (SEM, n), cAMP, incubated at 37° C., 0.1% bovine casein (no human serum albumin)): > 9950 nM
- Emax ([5]; HEK293, read-out: hGIPR Emax, % ± SEM, 0.1% bovine casein and 1.0% human serum albumin, 37° C., percent of maximal response to GIP(1-42)NH2): 87.8 ± 5.11%
- Emax ([5]; HEK293, read-out: hGIPR Emax, % ± SEM, percent of maximal response to GIP(1-42)NH2, 37° C., 0.1% bovine casein, arithmetic mean): 93 ± 0.813%
- EC50 ([5]; hGIPR EC50, nM (SEM, n), 0.1% bovine casein and 1.0% human serum albumin, 37° C.): 0.659 nM
- EC50 ([5]; hGIPR EC50, nM (SEM, n), cAMP, incubated at 37° C., 0.1% bovine casein (no human serum albumin)): 0.0154 nM
